Experimental data: the supplement of paper PMC10307832

What was measured:
Experiment in all cases: relative viability (nuclei count vs DMSO), 5 days (fraction); higher = more cells survive
[1] = system: BEN
Summary of the method: (§1)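 Five library-drug doses in √10 steps were combined with a fixed anchor-drug dose, or a single drug was given alone, by pin tool to lung cancer cell lines in 1536-well plates the day after seeding. Nuclei were stained and counted after 5 days. Relative viability is the nuclei count in treated wells over that in vehicle wells, taken as the median of duplicate plates.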

[2] = system: CAL-12T
Summary of the method: as §1

[3] = system: COR-L 105
Summary of the method: as §1

[4] = system: COR-L23
Summary of the method: as §1

[5] = system: HARA
Summary of the method: as §1

[6] = system: HCC-15
Summary of the method: as §1

[7] = system: HCC-366
Summary of the method: as §1

[8] = system: HCC-827
Summary of the method: as §1

[9] = system: HOP-62
Summary of the method: as §1

[10] = system: LC-2-ad
Summary of the method: as §1

[11] = system: LCLC-97TM1
Summary of the method: as §1

[12] = system: LU99A
Summary of the method: as §1

[13] = system: LXF-289
Summary of the method: as §1

[14] = system: NCI-H1993
Summary of the method: as §1

[15] = system: NCI-H2009
Summary of the method: as §1

[16] = system: NCI-H2087
Summary of the method: as §1

[17] = system: NCI-H2126
Summary of the method: as §1

[18] = system: NCI-H2170
Summary of the method: as §1

[19] = system: NCI-H727
Summary of the method: as §1

[20] = system: PC-14
Summary of the method: as §1

[21] = system: PC-3 [JPC-3]
Summary of the method: as §1

[22] = system: SK-MES-1
Summary of the method: as §1

Cc1cnc(-c2cnc(NCCNc3ccc(C#N)cn3)nc2-c2ccc(Cl)cc2Cl)[nH]1 + COc1cc2c(Oc3ccc(NC(=O)C4(C(=O)Nc5ccc(F)cc5)CC4)cc3F)ccnc2cc1OCCCN1CCOCC1 [Foretinib] (partner 0.25 µM)
relative viability ([1]; first compound 0.08 µM): 0.857 | relative viability ([1]; first compound 0.253 µM): 0.68 | relative viability ([1]; first compound 0.8 µM): 0.746 | relative viability ([1]; first compound 2.53 µM): 0.69 | relative viability ([2]; first compound 0.08 µM): 1.07 | relative viability ([2]; first compound 0.253 µM): 0.946 | relative viability ([2]; first compound 0.8 µM): 1.15 | relative viability ([2]; first compound 2.53 µM): 0.979 | relative viability ([3]; first compound 0.08 µM): 0.906 | relative viability ([3]; first compound 0.253 µM): 1.03 | relative viability ([3]; first compound 0.8 µM): 0.943 | relative viability ([3]; first compound 2.53 µM): 0.868 | relative viability ([4]; first compound 0.08 µM): 0.853 | relative viability ([4]; first compound 0.253 µM): 0.877 | relative viability ([4]; first compound 0.8 µM): 1.08 | relative viability ([4]; first compound 2.53 µM): 0.951 | relative viability ([5]; first compound 0.08 µM): 1 | relative viability ([5]; first compound 0.253 µM): 0.773 | relative viability ([5]; first compound 0.8 µM): 0.818 | relative viability ([5]; first compound 2.53 µM): 0.877 | relative viability ([6]; first compound 0.08 µM): 1.12 | relative viability ([6]; first compound 0.253 µM): 0.895 | relative viability ([6]; first compound 0.8 µM): 1.02 | relative viability ([6]; first compound 2.53 µM): 0.941 | relative viability ([7]; first compound 0.08 µM): 1.01 | relative viability ([7]; first compound 0.253 µM): 0.964 | relative viability ([7]; first compound 0.8 µM): 0.892 | relative viability ([7]; first compound 2.53 µM): 0.922 | relative viability ([8]; first compound 0.08 µM): 1.04 | relative viability ([8]; first compound 0.8 µM): 0.983 | relative viability ([8]; first compound 2.53 µM): 0.976 | relative viability ([9]; first compound 0.08 µM): 1.05 | relative viability ([9]; first compound 0.253 µM): 1.02 | relative viability ([9]; first compound 0.8 µM): 1.12 | relative viability ([9]; first compound 2.53 µM): 0.947 | relative viability ([10]; first compound 0.08 µM): 0.996 | relative viability ([10]; first compound 0.253 µM): 0.711 | relative viability ([10]; first compound 2.53 µM): 1.03 | relative viability ([11]; first compound 0.08 µM): 0.917 | relative viability ([11]; first compound 0.8 µM): 0.878 | relative viability ([11]; first compound 2.53 µM): 0.86 | relative viability ([12]; first compound 0.08 µM): 0.908 | relative viability ([12]; first compound 0.253 µM): 0.701 | relative viability ([12]; first compound 0.8 µM): 0.83 | relative viability ([12]; first compound 2.53 µM): 0.765 | relative viability ([13]; first compound 0.08 µM): 1.03 | relative viability ([13]; first compound 0.253 µM): 0.858 | relative viability ([13]; first compound 0.8 µM): 0.994 | relative viability ([13]; first compound 2.53 µM): 1.02 | relative viability ([14]; first compound 0.08 µM): 0.902 | relative viability ([14]; first compound 0.253 µM): 0.652 | relative viability ([14]; first compound 0.8 µM): 0.754 | relative viability ([14]; first compound 2.53 µM): 0.889 | relative viability ([15]; first compound 0.08 µM): 1.27 | relative viability ([15]; first compound 0.253 µM): 1.21 | relative viability ([15]; first compound 0.8 µM): 1.35 | relative viability ([15]; first compound 2.53 µM): 1.03 | relative viability ([16]; first compound 0.08 µM): 1.31 | relative viability ([16]; first compound 0.253 µM): 1.06 | relative viability ([16]; first compound 0.8 µM): 1.14 | relative viability ([16]; first compound 2.53 µM): 1.14 | relative viability ([17]; first compound 0.08 µM): 1.33 | relative viability ([17]; first compound 0.253 µM): 1.22 | relative viability ([17]; first compound 0.8 µM): 1 | relative viability ([17]; first compound 2.53 µM): 1.08 | relative viability ([18]; first compound 0.08 µM): 0.953 | relative viability ([18]; first compound 0.253 µM): 0.906 | relative viability ([18]; first compound 0.8 µM): 0.965 | relative viability ([18]; first compound 2.53 µM): 0.997 | relative viability ([19]; first compound 0.08 µM): 0.943 | relative viability ([19]; first compound 0.253 µM): 0.918 | relative viability ([19]; first compound 0.8 µM): 0.732 | relative viability ([19]; first compound 2.53 µM): 0.898 | relative viability ([20]; first compound 0.08 µM): 0.978 | relative viability ([20]; first compound 0.253 µM): 0.852 | relative viability ([20]; first compound 0.8 µM): 0.941 | relative viability ([20]; first compound 2.53 µM): 0.894 | relative viability ([21]; first compound 0.08 µM): 0.978 | relative viability ([21]; first compound 0.253 µM): 0.926 | relative viability ([21]; first compound 0.8 µM): 1.03 | relative viability ([21]; first compound 2.53 µM): 1.03 | relative viability ([22]; first compound 0.08 µM): 1.09 | relative viability ([22]; first compound 0.253 µM): 0.909 | relative viability ([22]; first compound 0.8 µM): 0.942 | relative viability ([22]; first compound 2.53 µM): 1.02
